Experimental data reported in patent EP0421697A2, “Contrast agents and methods for enhancing magnetic resonance imaging” (SMITHKLINE BEECHAM CORPORATION, priority 1989, dated 1991).

Experiments:
[1] = design: species or system Male Sprague-Dawley rats; conditions: rat, in vivo
Method: Male Sprague-Dawley rats (200 to 350 g; Charles River Breeding Laboratories, Raleigh, NC) were anesthetized with Inactin (100 mg/kg, i.p.; Byk Gulden). A jugular vein and femoral artery were isolated and cannulated with PE-50 polyethylene tubing (Clay-Adams). The femoral artery cannula was connected to a pressure transducer (Gould-Statham Model P23id) for blood pressure and heart rate recording. The jugular vein cannula was connected to an infusion pump (Sage Model 352) and an infusion of inulin (Inutest, Laevasan-Gesellschaft; 10% in 0.9% NaCl) and ytterbium-diethyltriaminepentaacetic acid (Yb-DTPA in water 6.0 mg/ml) was initiated at a rate of […]. […]
Urine volumes were measured gravimetrically (specific gravity = 1) and 50 µl was removed for determination of inulin and Yb-DTPA concentrations. Inulin concentrations in plasma and urine samples were determined according to the method of Heyrosky (1956). Yb concentrations were determined by inductively-coupled plasma emission spectrometry using a Model JY-38P (Instruments SA, Inc.) and a grating of 3600 lines/mm. The 369.42 nm Yb line and 5 one-second measurements were taken at the end of each sample aspiration to provide an average reading (Bumbier, et al., 1984). […] Plasma concentrations of inulin and Yb-DTPA for C₂ were estimated from values measured for C₁ and C₃. […]

[2] = test system: normal rat kidney; assay: MR imaging of rat kidney after i.v. bolus of Yb-DTPA (signal intensity ratio Ipapilla/Imuscle over time); type: in vivo, rats; conditions: 1 ml of a 50 mM solution in saline, GE SIGNA 1.5T, images every 20 seconds, Figure 1
Source text: After administration of the chelate solution to the subject, imaging with any conventional MR imaging system may be begun. Preferably, a fast imaging sequence, such as gradient echo imaging is used. […] This graph plots the ratio of signal intensity of region of interest to signal intensity of surrounding muscle tissue over time, as shown, for example in Figure 1, discussed below.
As in the above comparative example, rats were provided with an infusion line and strapped in an MRI magnet GE SIGNA 1.5T. 1 ml of a 50 mM solution of Yb-DTPA in saline was injected (intravenously) as a bolus. Images were collected every 20 seconds and the signal intensity from the rat papilla (Ipapilla) and signal intensity for the surrounding rat muscle (Imuscle) were measured. […] The area under the curve is an index of GFR.

ytterbium-diethylenetriamine pentaacetic acid [Yb-DTPA]
Mean (± SEM) renal clearance (Cin, CYb) [1]: 1101 ± 47 | share of renal elimination via glomerular filtration [1]: ~85% | ratio of signal intensities Ipapilla/Imuscle against time [2]: sharp decrease in the ratio and the slow rise
